≈ marks a conversion by molar mass, not a printed value.
How the values were obtained:
Test in all cases: Antibacterial activity in vitro, MIC by broth microdilution
[1] = system: H. influenzae Hain_49247; format: cell-based, Haemophilus influenzae; conditions: Table 5, Strain ID M: H. influenzae Hain_49247; unit assumed
Description: (§1) Representative compounds of the present invention were assayed in vitro for antibacterial activity against the bacterial isolates listed in Table 1 as follows:
(§2) The bacterial isolates listed in Table 1 were cultivated from −70° C. frozen stocks by two consecutive overnight passages (P1, P2) at 35° C. on 5% blood agar (Remel, Lenexa, Kans.). Chocolate agar (Remel) is used for Haemophilus influenzae. H. influenzae and Streptococcus pneumoniae are incubated in 5-10% CO2.
(§3) To determine the amount of solvent to be used to give the desired final concentration, the formula “weight obtained in mg/final concentration in mg/mL” will be used. It will give the amount of solvent in mL needed to be added to give the desired concentration. For example, if 2.5 mg/mL is the desired concentration and the weight of compound is 13.7 mg, then the amount of solvent to be added is 3.94 mL (13.7 mg/2.5 mg/mL=3.94 mLs). Methanol is used as the solvent to dissolve the test compounds. Further dilution of stock is done in sterile, deioinzed water. Drug stocks are kept frozen at −70° C., protected from light.
(§4) MICs are determined by the broth microdilution method in accordance with the NCCLS guidelines. In brief, organism suspensions are adjusted to a 0.5 McFarland standard to yield a final inoculum between 3×10^5 and 7×10^5 CFU/mL. Drug dilutions and inocula are made in sterile, cation adjusted Mueller-Hinton Broth (CAMHB) (Remel) for all but S. pneumoniae [CAMHB with 2-5% lysed horse blood (Remel)] and H. influenzae [Haemophilus Test Medium (Remel)]. An inoculum volume of 100 μl is added to wells containing 100 μl of broth with 2-fold serial dilutions of drug. All inoculated microdilution trays are incubated in ambient air at 35° C. for 18-24 hours, except for S. pneumoniae, and H. influenzae (both at 5-10% CO2).
(§5) Following appropriate incubation, the MIC is determined and the MIC is defined as the lowest concentration of the drug that prevented visible growth.

[2] = system: S. pyogenes Stpy_8668; format: cell-based; conditions: Table 5, Strain ID E: S. pyogenes Stpy_8668
Description: as §1, §2, §3, §4, §5

[3] = system: S. aureus Stau_29213; format: cell-based; conditions: Table 5, Strain ID A: S. aureus Stau_29213; unit assumed
Description: as §1, §2, §3, §4, §5

[4] = system: S. epidermidis Step_f50654 Pen S; format: cell-based; conditions: Table 5, Strain ID C: S. epidermidis Step_f50654; unit assumed
Description: as §1, §2, §3, §4, §5

[5] = system: S. epidermidis Step_14990; format: cell-based; conditions: Table 5, Strain ID B: S. epidermidis Step_14990; unit assumed
Description: as §1, §2, §3, §4, §5

[6] = system: E. faecalis Enfa_29212; format: cell-based; conditions: Table 5, Strain ID D: E. faecalis Enfa_29212; unit assumed
Description: as §1, §2, §3, §4, §5

[7] = system: S. pneumoniae Stpn_Erm 6849; format: cell-based, Streptococcus pneumoniae; conditions: Table 5, Strain ID I: S. pneumoniae Stpn_Erm 6849; unit assumed
Description: as §1, §2, §3, §4, §5

[8] = system: S. pneumoniae Stpn_280-962 Pen S; format: cell-based, Streptococcus pneumoniae; conditions: Table 5, Strain ID H: S. pneumoniae Stpn_280-962
Description: as §1, §2, §3, §4, §5

[9] = system: S. pneumoniae Stpn_49619; format: cell-based, Streptococcus pneumoniae; conditions: Table 5, Strain ID F: S. pneumoniae Stpn_49619
Description: as §1, §2, §3, §4, §5

[10] = system: S. pneumoniae Stpn_Mef S 3427; format: cell-based, Streptococcus pneumoniae; conditions: Table 5, Strain ID L: S. pneumoniae Stpn_Mef S 3427
Description: as §1, §2, §3, §4, §5

[11] = system: S. pneumoniae Stpn_Erm S 4297; format: cell-based, Streptococcus pneumoniae; conditions: Table 5, Strain ID J: S. pneumoniae Stpn_Erm S 4297; unit assumed
Description: as §1, §2, §3, §4, §5

[12] = system: S. pneumoniae Stpn_Mef 5654; format: cell-based, Streptococcus pneumoniae; conditions: Table 5, Strain ID K: S. pneumoniae Stpn_Mef 5654; unit assumed
Description: as §1, §2, §3, §4, §5

[13] = system: S. pneumoniae Stpn_297-749 Pen R; format: cell-based, Streptococcus pneumoniae; conditions: Table 5, Strain ID G: S. pneumoniae Stpn_297-749
Description: as §1, §2, §3, §4, §5

SMILES	MIC [1] [µg/mL]	MIC ([2]; unit assumed) [µg/mL]	MIC [3] [µg/mL]	MIC [4] [µg/mL]	MIC [5] [µg/mL]	MIC [6] [µg/mL]	MIC [7] [µg/mL]	MIC [8]	MIC [9]	MIC ([10]; unit assumed) [µg/mL]	MIC [11] [µg/mL]	MIC [12] [µg/mL]	MIC [13]	MIC [2]	MIC [10]
C/C=C/[C@]12OC(=O)N(CCCCn3cnc(-c4cccnc4)c3)[C@@H]1[C@@H](C)C(=O)[C@H](C)C[C@](C)(OC)[C@H](O[C@@H]1O[C@H](C)C[C@H](N(C)C)[C@H]1O)[C@@H](C)C(=O)[C@@H](C)C(=O)O[C@@H]2CC [65(2), (3aS,4R,7R,9R,10R,11S,13R,15R,15aR)-4-ethyl-11-methoxy-7,9,11,13,15-pentamethyl-2,6,8,14-tetraoxo-3a-[(1E)-prop-1-enyl]-1-[4-(4-pyridin-3-yl-1H-imidazol-1-yl)butyl]tetradecahydro-2H-oxacyclotetradecino[4,3-d][1,3]oxazol-10-yl 3,4,6-trideoxy-3-(dimethylamino)-D-xylo-hexopyranoside]	25 (≈ 29.8 µM)	0.2 (≈ 0.239 µM)	3.13 (≈ 3.73 µM)	3.13 (≈ 3.73 µM)	3.13 (≈ 3.73 µM)	0.78 (≈ 0.931 µM)	0.78 (≈ 0.931 µM)	≦0.05	≦0.05	0.2 (≈ 0.239 µM)	0.4 (≈ 0.477 µM)	0.78 (≈ 0.931 µM)	≦0.05	–	–
CC[C@H]1OC(=O)[C@H](C)C(=O)[C@H](C)[C@@H](OC2O[C@H](C)C[C@H](N(C)C)[C@H]2O)[C@@](C)(OC)C[C@@H](C)C(=O)[C@H](C)[C@H]2N(CCCCn3cnc4cccnc43)C(=O)O[C@]12CC (stereo partly drawn) [Example 14, (3aS,4R,7R,9R,10R,11S,13R,15R,15aR)-3a,4-diethyl-1-[4-(3H-imidazo[4,5-b]pyridin-3-yl)butyl]-11-methoxy-7,9,11,13,15-pentamethyl-2,6,8,14-tetraoxotetradecahydro-2H-oxacyclotetradecino[4,3-d][1,3]oxazol-10-yl 3,4,6-trideoxy-3-(dimethylamino)-D-xylo-hexopyranoside]	3.13 (≈ 3.91 µM)	–	0.4 (≈ 0.5 µM)	0.2 (≈ 0.25 µM)	0.2 (≈ 0.25 µM)	0.1 (≈ 0.125 µM)	0.4 (≈ 0.5 µM)	≦0.05	≦0.05	–	0.1 (≈ 0.125 µM)	0.4 (≈ 0.5 µM)	≦0.05	≦0.05	≦0.05
CC[C@H]1OC(=O)[C@H](C)C(=O)[C@H](C)[C@@H](OC2O[C@H](C)C[C@H](N(C)C)[C@H]2O)[C@@](C)(OC)C[C@@H](C)C(=O)[C@H](C)[C@H]2N(CCCCc3ccnc4ccccc34)C(=O)O[C@]12CC (stereo partly drawn) [Example 15, (3aS,4R,7R,9R,10R,11S,13R,15R,15aR)-3a,4-diethyl-11-methoxy-7,9,11,13,15-pentamethyl-2,6,8,14-tetraoxo-1-(4-quinolin-4-ylbutyl)tetradecahydro-2H-oxacyclotetradecino[4,3-d][1,3]oxazol-10-yl 3,4,6-trideoxy-3-(dimethylamino)-D-xylo-hexopyranoside]	3.13 (≈ 3.86 µM)	–	0.4 (≈ 0.494 µM)	0.4 (≈ 0.494 µM)	0.2 (≈ 0.247 µM)	0.1 (≈ 0.123 µM)	1.56 (≈ 1.93 µM)	≦0.05	≦0.05	–	0.1 (≈ 0.123 µM)	0.2 (≈ 0.247 µM)	≦0.05	≦0.05	≦0.05
CC[C@H]1OC(=O)[C@@](C)(F)C(=O)[C@H](C)[C@@H](OC2O[C@H](C)C[C@H](N(C)C)[C@H]2O)[C@@](C)(OC)C[C@@H](C)C(=O)[C@H](C)[C@H]2N(CCCCc3ccnc4ccccc34)C(=O)O[C@]12CC (stereo partly drawn) [Example 17, (3aS,4R,7S,9R,10R,11S,13R,15R,15aR)-3a,4-diethyl-7-fluoro-11-methoxy-7,9,11,13,15-pentamethyl-2,6,8,14-tetraoxo-1-(4-quinolin-4-ylbutyl)tetradecahydro-2H-oxacyclotetradecino[4,3-d][1,3]oxazol-10-yl 3,4,6-trideoxy-3-(dimethylamino)-D-xylo-hexopyranoside]	3.13 (≈ 3.78 µM)	0.1 (≈ 0.121 µM)	0.4 (≈ 0.483 µM)	0.4 (≈ 0.483 µM)	0.4 (≈ 0.483 µM)	0.2 (≈ 0.242 µM)	0.78 (≈ 0.942 µM)	≦0.05	≦0.05	0.1 (≈ 0.121 µM)	0.2 (≈ 0.242 µM)	0.4 (≈ 0.483 µM)	≦0.05	–	–
